Source: patent US20040005537A1, “Method of identifying toxic agents using differential gene expression” (priority 2000, published 2004)

Experiments:
rat heart tissue = assay: GENECALLING differential gene expression analysis after dosing of serotonin modulating agents; assay type: in vivo, Sprague Dawley rats
Protocol: Control animals received sterile water or canola oil. The animals were sacrificed 24 hours following the last dose. Liver tissue was dissected from the animals, and total RNA was recovered from the dissected tissue. cDNA was prepared and the resulting samples were processed through using GENECALLING™ differential expression analysis as described in U.S. Pat. No. 5,871,697 and in Shimkets et al., Nature Biotechnology 17:798-803 (1999). The contents of these patents and publications are incorporated herein by reference in their entirety.
Thousands of gene fragments were initially found to be differentially expressed in rat heart tissue in response to serotonin modulating agents in. Genes fragments whose expression levels were modulated greater than ±1.5-fold were selected for further analysis.
Column 6 of Table 1, entitled “Function”, lists the type of classification assigned for the protein, based on its function. The 210 single nucleic acid sequences identified herein, are referred to herein as CARDIOTOX 1-210.

[1] = cited from earlier work

CCNC(C)Cc1cccc(C(F)(F)F)c1 (centres unmarked) [fenfluramine]
Effects on Transcription Level: Novel gene fragment, 445 bp, 85% SI to human skeletal muscle alpha 2 actinin [M86406] (rat heart tissue; CARDIOTOX 72): −2.0 fold
Effects on Transcription Level: Novel gene fragment, 246 bp, 89% SI to mouse ponsin-1 [AF078667] (rat heart tissue; CARDIOTOX 73): −2.8 fold
Effects on Transcription Level: Novel gene fragment, 126 bp, 77% SI to human DNA sequence from cosmid V311G7, between markers DXS366 and DXS87 on chromosome X [Z69304] (rat heart tissue; CARDIOTOX 74): +1.9 fold
Effects on Transcription Level: Novel gene fragment, 370 bp (rat heart tissue; CARDIOTOX 75): −3.0 fold
Effects on Transcription Level: Novel gene fragment, 337 bp, 78% SI to novel human protein AHNAK [M80899] (rat heart tissue; CARDIOTOX 76): −3.6 fold
Effects on Transcription Level: Novel gene fragment, 100 bp, 93% SI to human KIAA0750 protein [ABO18293] (rat heart tissue; CARDIOTOX 77): −9.0 fold
Effects on Transcription Level: Novel gene fragment, 44 bp (rat heart tissue; CARDIOTOX 78): −6.7 fold
Effects on Transcription Level: Novel gene fragment, 698 bp, 93% SI to mouse plenty-of-prolines-101 [AF062655] (rat heart tissue; CARDIOTOX 79): −2.5 fold
Effects on Transcription Level: Novel gene fragment, 660 bp, 84% SI to mouse membrane protein TMS-2 [AF181685] (rat heart tissue; CARDIOTOX 80): −3.7 fold
Effects on Transcription Level: Novel gene fragment, 115 bp (rat heart tissue; CARDIOTOX 81): −6.3 fold
Effects on Transcription Level: Novel gene fragment, 294 bp, 95% SI to mouse Ndr1 related protein Ndr2 [AB033921] (rat heart tissue; CARDIOTOX 82): −2.0 fold
Effects on Transcription Level: Novel gene fragment, 198 bp (rat heart tissue; CARDIOTOX 83): +2.7 fold
Effects on Transcription Level: Novel gene fragment, 730 bp, 86% SI to mouse E800 [Y10968] (rat heart tissue; CARDIOTOX 84): −2.4 fold
Effects on Transcription Level: Novel gene fragment, 294 bp, 98% SI to cysteine conjugate beta-lyase [S61960] (rat heart tissue; CARDIOTOX 85): −2.4 fold
Effects on Transcription Level: Aconitase (rat heart tissue; CARDIOTOX 86, GenBank A1243266): −3.4 fold
Effects on Transcription Level: Ribosomal protein L7 (rat heart tissue; CARDIOTOX 87, GenBank M17422): +2.5 fold
Effects on Transcription Level: Ribosomal protein L9 (rat heart tissue; CARDIOTOX 88, GenBank X51706): +11.0 fold
Effects on Transcription Level: Ribosomal protein L12 (rat heart tissue; CARDIOTOX 89, GenBank X53504): −1.5 fold
Effects on Transcription Level: 18S, 5.8S, and 28S ribosomal RNA's (rat heart tissue; CARDIOTOX 90, GenBank V01270): +6 fold
Effects on Transcription Level: Pyruvate dehydrogenase kinase 2 (PDK2) (rat heart tissue; CARDIOTOX 91, GenBank U10357): −7.7 fold
Effects on Transcription Level: D-Binding Protein (DBP) (rat heart tissue; CARDIOTOX 92, GenBank J03179): −1.9 fold
Effects on Transcription Level: Lipoprotein lipase (rat heart tissue; CARDIOTOX 93, GenBank L03294): −2.3 fold
Effects on Transcription Level: Non-neuronal enolase (rat heart tissue; CARDIOTOX 94, GenBank X02610): +3.5 fold
Effects on Transcription Level: Glycogen phosphorylase (muscle isozyme) (rat heart tissue; CARDIOTOX 95, GenBank L10669): −2.3 fold
Effects on Transcription Level: Cytochrome c oxidase subunit IV (rat heart tissue; CARDIOTOX 96, GenBank X14209): +10.0 fold
Effects on Transcription Level: Alpha-globin (rat heart tissue; CARDIOTOX 97, GenBank M17083): +3.4 fold
Effects on Transcription Level: Beta-globin (rat heart tissue; CARDIOTOX 98, GenBank X06701): +3.6 fold
Effects on Transcription Level: Myoglobin (rat heart tissue; CARDIOTOX 99, GenBank AF197916): +4.0 fold
Effects on Transcription Level: Titin (rat heart tissue; CARDIOTOX 100, GenBank L38717): −1.6 fold
Effects on Transcription Level: Skeletal muscle actin (rat heart tissue; CARDIOTOX 101, GenBank V01218): −14.9 fold
Effects on Transcription Level: Myosin light chain 2 (MLC2) (rat heart tissue; CARDIOTOX 102, GenBank M11851): +2.4 fold
Effects on Transcription Level: Alpha cardiac myosin heavy chain (rat heart tissue; CARDIOTOX 103, GenBank X15938): −7.5 fold
Effects on Transcription Level: Troponin I (rat heart tissue; CARDIOTOX 104, GenBank U77354): +1.8 fold
Effects on Transcription Level: Cardiac calsequestrin (rat heart tissue; CARDIOTOX 105, GenBank AF001334): −2.4 fold
Effects on Transcription Level: Sulfated glycoprotein 2 (rat heart tissue; CARDIOTOX 106, GenBank M16975): −1.8 fold
Effects on Transcription Level: Aquaporin 7 (rat heart tissue; CARDIOTOX 107, GenBank AB000507): +1.5 fold
Effects on Transcription Level: Carnitine/acylcarnitine carrier protein (rat heart tissue; CARDIOTOX 108, GenBank X97831): −2.6 fold
Effects on Transcription Level: Glu-Pro Dipeptide Repeat (rat heart tissue; CARDIOTOX 109, GenBank U40628): −5.6 fold
Effects on Transcription Level: Cystatin beta (rat heart tissue; CARDIOTOX 110, GenBank X54737): +2.7 fold
Effects on Transcription Level: Novel gene fragment, 593 bp, 90% SI to human calcineurin B-like protein [Z08983] (rat heart tissue; CARDIOTOX 111): +2.1 fold
Effects on Transcription Level: Novel gene fragment, 179 bp, 88% SI to human titin [X90568] (rat heart tissue; CARDIOTOX 112): −3.0 fold
Effects on Transcription Level: Novel gene fragment, 700 bp, 91% SI to mouse periplakin (PPL) [AF116523] (rat heart tissue; CARDIOTOX 113): +2.0 fold
Effects on Transcription Level: Long chain acyl-CoA dehydrogenase (LCAD) (rat heart tissue; CARDIOTOX 114, GenBank J05029): +1.8 fold
Effects on Transcription Level: Sulfated glycoprotein 1 (SGP-1) (rat heart tissue; CARDIOTOX 115, GenBank M19936): −2.0 fold
Effects on Transcription Level: Catalase (rat heart tissue; CARDIOTOX 116, GenBank M11670): +2.1 fold
Effects on Transcription Level: Alpha-fodrin (A2A) (Nonerythroid spectrin alpha subunit) (rat heart tissue; CARDIOTOX 117, GenBank AF084186): −1.8 fold
Effects on Transcription Level: Cardiac specific sodium channel alpha-subunit (rat heart tissue; CARDIOTOX 118, GenBank M27902): −2.1 fold
Effects on Transcription Level: Glu-Pro Dipeptide Repeat (rat heart tissue; CARDIOTOX 119, GenBank U40628): +4.2 fold
Effects on Transcription Level: Novel gene fragment, 200 bp, 64% SI to human KIAA0733 protein [AB018316] (rat heart tissue; CARDIOTOX 120): −1.7 fold
Effects on Transcription Level: RNA polymerase II transcription factor SIII (p18 subunit) (rat heart tissue; CARDIOTOX 121, GenBank L42855): +1.7 fold
Effects on Transcription Level: Protein-tyrosine phosphalase (LRP) (rat heart tissue; CARDIOTOX 122, GenBank L01702): +2.0 fold
Effects on Transcription Level: Skeletal muscle selenoprotein W (SelW) (rat heart tissue; CARDIOTOX 123, GenBank U25264): −1.8 fold
Effects on Transcription Level: Sarcoplasmic reticulum 2+-Ca-ATPase (rat heart tissue; CARDIOTOX 124, GenBank X15635): −1.6 fold
Effects on Transcription Level: Ribosomal protein S7 (rat heart tissue; CARDIOTOX 125, GenBank X53377): +1.0 fold
Effects on Transcription Level: Ribophorin I (rat heart tissue; CARDIOTOX 126, GenBank X05300): +1.6 fold
Effects on Transcription Level: Beta cardiac myosin heavy chain (rat heart tissue; CARDIOTOX 127, GenBank X15939): +2.3 fold
Effects on Transcription Level: ADP-ribosylation factor 1 (rat heart tissue; CARDIOTOX 128, GenBank L12380): +1.2 fold
Effects on Transcription Level: Laminin receptor (rat heart tissue; CARDIOTOX 129, GenBank U04942): +2.6 fold
Effects on Transcription Level: Novel gene fragment, 206 bp, 89% SI to human seryl-tRNA synthetase [X91257] (rat heart tissue; CARDIOTOX 130): +1.8 fold
Effects on Transcription Level: Annexin VI (rat heart tissue; CARDIOTOX 131, GenBank X86086): −1.8 fold
Effects on Transcription Level: Novel gene fragment, 325 bp, 90% SI to mouse N-RAP [U76618] (rat heart tissue; CARDIOTOX 132): +1.7 fold
Effects on Transcription Level: Novel gene fragment, 61 bp (CARDIOTOX 134) (rat heart tissue; LD10 dose for three days): −2.4 fold
Effects on Transcription Level: Novel gene fragment, 337 bp (CARDIOTOX 133) (rat heart tissue; LD10 dose for three days): −2.4 fold
Effects on Transcription Level: Novel gene fragment, 378 bp, 88% SI to human coatomer protein (COPA) [U24105] (CARDIOTOX 138) (rat heart tissue; LD10 dose for three days): −1.6 fold
Effects on Transcription Level: Long chain 3-ketoacyl-CoA thiolase (CARDIOTOX 136) (rat heart tissue; LD10 dose for three days, GenBank D16479): −1.1 fold
Effects on Transcription Level: TATA-binding protein interacting protein 120 (TIP120) (CARDIOTOX 135) (rat heart tissue; LD10 dose for three days, GenBank D87671): +1.9 fold
Effects on Transcription Level: Serine protease (CARDIOTOX 139) (rat heart tissue; LD10 dose for three days, GenBank D88250): +4.0 fold
Effects on Transcription Level: Thymosin beta-4 (CARDIOTOX 137) (rat heart tissue; LD10 dose for three days, GenBank M34043): +1.6 fold
Effects on Transcription Level: Annexin VI (no CARDIOTOX assignment given) (rat heart tissue; LD10 dose for three days, GenBank X86086): −1.7 fold
classification as cardiotoxic or noncardiotoxic serotonin modulating agent ([1]; grouping used to generate the distinguishing gene profiles): cardiotoxic
side effect reported in a subset of patients ([1]; patients to which they are administered): valvular heart disease
